How the values were obtained:
[1] = Hygroscopicity on standing in an open jar at 80% relative humidity; format: physicochemical; settings: converted to pasty solid
Protocol: The crystals were hygroscopic and converted to caramel-like, pasty solid on standing in an open jar at 80% relative humidity. […] Thermogravimetric analysis (TGA) and simultaneous differential scanning calorimetry (DSC) were conducted using a Q600 TGA/DSC instrument (TA Instruments, Inc.). Samples were subjected to heating scans (10 or 20° C./min) in a temperature ramp mode under nitrogen atmosphere.

[2] = Electrochemical impedance spectroscopy (EIS) of galvanized steel in 3.5% NaCl with additives; settings: for η, inhibitor efficiency from EIS: 3.5% NaCl, 25° C, pH 5.6, additive 10 mg/mL
Protocol: The electrochemical open-to-air cell (PTC1™ Paint Test Cell, Gamry Instruments, Warminster, Pa.) was utilized for the potentiodynamic polarization (Tafel tests) and electrochemical impedance spectroscopy experiments. […] Tafel tests (ASTM GS) were conducted using a Parstat PMC-2000 multichannel potentiostat equipped with Versa Studio 2.50.3 software (Princeton Applied Research, Oak Ridge, Tenn.). Tafel tests were modeled with a ZSIMPWIN™ software for complex nonlinear least square analyses fitting the circuit models of the electrode interface to the Nyquist amplitude of 10 mV at the open circuit potential in the frequency range of 100 kHz to 0.2 Hz. […] In a series of measurements with the corrosion inhibiting additives, a range of the additive concentrations was studied and the scan range was set from 150 mV below the open circuit voltage (OCV) to 200 mV more positive than the OCV, with three measurements for each condition. The range in these measurements was limited in order to minimize the cathodic polarization causing local pH changes.
EIS (FIGS. 17A and 17B) was applied to further reveal the effects of the corrosion inhibitors on the electrolyte-galvanized steel electrode interface and to complement the potentiodynamic polarization measurements. The qualitative information was obtained using fit analysis embedded into the software used to model the spectra, employing electrical equivalent circuits (EECs).
Elements of the EECs are described in the legend to FIGS. 17A and 17B. The corrosion resistance of the galvanized steel surface in the presence of the corrosion inhibitor represents the RCT+Rp sum. In the control measurement without the additive, the spectrum with one time constant EEC was used, wherein the electrode resistance is represented by RCT.
EIS measurements enabled estimation of the corrosion inhibition efficiency: […]

[3] = Potentiodynamic polarization (Tafel tests) of galvanized steel in 3.5% NaCl with additives; settings: for Corrosion rate / Icorr (corrosion current density) / IE, inhibitor efficiency from Tafel: 25° C; for corrosion inhibitor efficiency compared with other additives: pH 5.3, equivalent concentrations; for formation of white rust on the steel working electrode: millimolar or higher concentrations in 3.5% NaCl
Excerpt: The electrochemical open-to-air cell (PTC1™ Paint Test Cell, Gamry Instruments, Warminster, Pa.) was utilized for the potentiodynamic polarization (Tafel tests) and electrochemical impedance spectroscopy experiments. The electrochemical cell was composed of working electrode made of galvanized steel (zinc-galvanized sheets of type B carbon steel, ASTM A653, total thickness 0.305 mm, working area 2.2 cm^2 or 15.2 cm^2, McMaster Carr Supply Co., Robbinsvill, N.J.), reference Ag/AgCl electrode, and Pt wire auxiliary electrode (BASK) Corp., West Lafayette, Ind.). Prior to the immersion in the electrolyte (3.5% NaCl, pH adjusted to 5.25-5.3, 40 mL), the working electrodes were washed by acetone, ethanol, dried by nitrogen flow and polished with P1200 grit.^24 The working electrode was immersed into electrolyte containing the tested compound at a given concentration with desired pH at 25° C. for 60 min prior to each measurement. […] The carbon steel used herein was coated with the average minimum coating thickness per ASTM A653 being 2.0 mils (0.0508 mm) per surface. Tafel tests (ASTM GS) were conducted using a Parstat PMC-2000 multichannel potentiostat equipped with Versa Studio 2.50.3 software (Princeton Applied Research, Oak Ridge, Tenn.). Tafel tests were modeled with a ZSIMPWIN™ software for complex nonlinear least square analyses fitting the circuit models of the electrode interface to the Nyquist amplitude of 10 mV at the open circuit potential in the frequency range of 100 kHz to 0.2 Hz. Parameters for Tafel tests were as follows: initial potential, −1.25 V (vs reference); final potential, −0.45 V; scan properties: step height, 0.5 mV, step time, 2 s. In a series of measurements with the corrosion inhibiting additives, a range of the additive concentrations was studied and the scan range was set from 150 mV below the open circuit voltage (OCV) to 200 mV more positive than the OCV, with three measurements for each condition. The range in these measurements was limited in order to minimize the cathodic polarization causing local pH changes.
In the vicinity of Ecorr both currents are present in the specimen, but experimentally it is possible to measure only the net current. The net current has a single measurable polarity, either positive or negative. At Ecorr the net measured current is exactly zero. The corrosion current (icorr) is expressed as (for definitions, see FIG. 13):
[formula] where E.W. is the equivalent weight of the corroding species, g. In this case, the corroding species is Zn, so E.W.=32.7 g. Icorr, is the corrosion current density in μA/cm^2, and d is the density of the corroding species. Density of zinc is 7.140 g/cm^3.
From the icorr values, inhibitor efficiencies (IE, %) were calculated as (equation (1)): […]

[4] = Solubility / dissolution testing
[5] = 44.7 mM, electrolyte containing 0.0165 wt % NaCl (pH not stated); cited from earlier work
[6] = cited from earlier work
[7] = cited from earlier work; remark: listed apart in the source
[8] = 3.5% NaCl, pH 5.3, [Mg2+] 9.93, [Ac−] 9.93, [TDPA] 15.9 meq/L
[9] = 3.5% NaCl, pH 5.3, [Mg2+] 41.9, [Ac−] 41.9, [TDPA] 67.1 meq/L
[10] = 3.5% NaCl, pH 5.3, [Mg2+] 62.9, [Ac−] 62.9, [TDPA] 101 meq/L
[11] = 3.5% NaCl, pH 5.6, additive 10 mg/mL
[12] = 3.5% NaCl, pH 5.3, [Mg2+] 71.8, [Ac−] 144, [TDPA] 0 meq/L
[13] = 3.5% NaCl, pH 5.3, [Mg2+] 167, [TDPA] 33.5 meq/L
[14] = 3.5% NaCl, pH 2.1, [TDPA] 94.8 meq/L
[15] = 3.5% NaCl, pH 5.3, [TDPA] 47.4 meq/L
[16] = 3.5% NaCl, pH 5.3, [TDPA] 94.8 meq/L
[17] = 3.5% NaCl, pH 5.3, [Mg2+] 49.8, [TDPA] 49.8 meq/L

magnesium acetate thiodipropionate [MgAcTDPA]
hygroscopicity of the crystals [1]: hygroscopic
η, inhibitor efficiency from EIS [2]: 80%
Corrosion rate [3, 8]: 29.4 mpy
Icorr (corrosion current density) [3, 8]: 49.3 μA/cm^2
Corrosion rate [3, 9]: 7.9 mpy
Icorr (corrosion current density) [3, 9]: 13.3 μA/cm^2
Corrosion rate [3, 10]: 1.85 mpy
Icorr (corrosion current density) [3, 10]: 3.12 μA/cm^2
Corrosion rate [3, 11]: 2.41 mpy
IE, inhibitor efficiency from Tafel [3, 11]: 84%
Icorr (corrosion current density) [3, 11]: 4.06 μA/cm^2
corrosion inhibitor efficiency compared with other additives ([3]; 3.5% NaCl): the most efficient corrosion inhibitor
formation of white rust on the steel working electrode [3]: visibly reduced the formation of white rust
concentration on dissolution in warm ethanol ([4]; warm ethanol): at least 10 wt %

CC(=O)[O-].CC(=O)[O-].O.O.O.O.[Mg+2] [MgAc2, magnesium acetate tetrahydrate, reference compound]
η, inhibitor efficiency from EIS [2]: 41%
Corrosion rate [3, 12]: 37.0 mpy
Icorr (corrosion current density) [3, 12]: 62.1 μA/cm^2
Corrosion rate [3, 11]: 8.03 mpy
IE, inhibitor efficiency from Tafel [3, 11]: 48%
Icorr (corrosion current density) [3, 11]: 13.5 μA/cm^2

magnesium thiodipropionate [MgTDPA5:1]
η, inhibitor efficiency from EIS [2]: 72%
Corrosion rate [3, 13]: 50.7 mpy
Icorr (corrosion current density) [3, 13]: 85.1 μA/cm^2
Corrosion rate [3, 11]: 4.65 mpy
IE, inhibitor efficiency from Tafel [3, 11]: 69%
Icorr (corrosion current density) [3, 11]: 7.82 μA/cm^2
corrosion inhibitor efficiency compared with other additives ([3]; 3.5% NaCl): quite effective in reducing the corrosion rate
solubility in the electrolyte ([4]; 3.5% NaCl electrolyte, yielded a suspension): only fractionally soluble

CCCCCCCCCC(=O)O [decanoic acid]
inhibition efficiency η [5]: 83.5%

O=C(O)CCSCCC(=O)O [TDPA, 3,3′-thiodipropionic acid, reference compound]
η, inhibitor efficiency from EIS [2]: 81%
pKa [6]: 4.11
Corrosion rate [3, 14]: 474 mpy
Icorr (corrosion current density) [3, 14]: 796 μA/cm^2
Corrosion rate [3, 15]: 26.5 mpy
Icorr (corrosion current density) [3, 15]: 44.5 μA/cm^2
Corrosion rate [3, 16]: 16.9 mpy
Icorr (corrosion current density) [3, 16]: 28.4 μA/cm^2
Corrosion rate [3, 11]: 2.47 mpy
IE, inhibitor efficiency from Tafel [3, 11]: 84%
Icorr (corrosion current density) [3, 11]: 4.15 μA/cm^2
formation of white rust on the steel working electrode [3]: visibly reduced the formation of white rust
solubility in solvents [7]: soluble in water, acetone, and alcohol

magnesium thiodipropionate [MgTDPA1:1]
increase in total resistance Ri=RCT+Rp versus Ro=RCT without inhibitor ([2]; 10 mg/mL in 3.5% NaCl, pH 5.6, 25° C): 283 fold
η, inhibitor efficiency from EIS [2]: 99%
effect on Icorr in Tafel plots (FIG. 16) ([3]; 10 mg/mL in 3.5% NaCl, pH 5.6, versus no additive and other additives): reduced the Icorr values the most
breakdown potentials (instability of the oxide film, pitting corrosion) ([3]; 1-2 mM concentrations and above in the 3.5% NaCl electrolyte): increased
Corrosion rate [3, 17]: 21.1 mpy
Icorr (corrosion current density) [3, 17]: 35.5 μA/cm^2
Corrosion rate [3, 11]: 1.07 mpy
IE, inhibitor efficiency from Tafel [3, 11]: 93%
Icorr (corrosion current density) [3, 11]: 1.79 μA/cm^2
corrosion inhibitor effectiveness compared with controls (data in Table 1) ([3]; galvanized steel, 3.5% NaCl): more effective corrosion inhibitor for galvanized steel than either TDPA or MgAc2
formation of white rust on the steel working electrode [3]: visibly reduced the formation of white rust

Source: patent publication US10934439B2, “Additives for coating compositions and related methods” (Massachusetts Institute of Technology, priority 2017, dated 2021)
